Test results: PubChem BioAssay AID835 (The Scripps Research Institute Molecular Screening Center, 2007)
Activity calls are given as the source filed them. No rule for the calls is given here.

The compounds below were run against Ephrin type-B receptor 4 (Homo sapiens) (UniProt P54760) (assay: blockers of EphB4 ligand binding – biochemical, TNYL-RAW peptide displacement, dose response (AID 835)). Conditions: EphB4-ephrin-B2 interaction.
Ephrin type-B receptor 4 (Homo sapiens), sequence (P54760 whole entry, looked up): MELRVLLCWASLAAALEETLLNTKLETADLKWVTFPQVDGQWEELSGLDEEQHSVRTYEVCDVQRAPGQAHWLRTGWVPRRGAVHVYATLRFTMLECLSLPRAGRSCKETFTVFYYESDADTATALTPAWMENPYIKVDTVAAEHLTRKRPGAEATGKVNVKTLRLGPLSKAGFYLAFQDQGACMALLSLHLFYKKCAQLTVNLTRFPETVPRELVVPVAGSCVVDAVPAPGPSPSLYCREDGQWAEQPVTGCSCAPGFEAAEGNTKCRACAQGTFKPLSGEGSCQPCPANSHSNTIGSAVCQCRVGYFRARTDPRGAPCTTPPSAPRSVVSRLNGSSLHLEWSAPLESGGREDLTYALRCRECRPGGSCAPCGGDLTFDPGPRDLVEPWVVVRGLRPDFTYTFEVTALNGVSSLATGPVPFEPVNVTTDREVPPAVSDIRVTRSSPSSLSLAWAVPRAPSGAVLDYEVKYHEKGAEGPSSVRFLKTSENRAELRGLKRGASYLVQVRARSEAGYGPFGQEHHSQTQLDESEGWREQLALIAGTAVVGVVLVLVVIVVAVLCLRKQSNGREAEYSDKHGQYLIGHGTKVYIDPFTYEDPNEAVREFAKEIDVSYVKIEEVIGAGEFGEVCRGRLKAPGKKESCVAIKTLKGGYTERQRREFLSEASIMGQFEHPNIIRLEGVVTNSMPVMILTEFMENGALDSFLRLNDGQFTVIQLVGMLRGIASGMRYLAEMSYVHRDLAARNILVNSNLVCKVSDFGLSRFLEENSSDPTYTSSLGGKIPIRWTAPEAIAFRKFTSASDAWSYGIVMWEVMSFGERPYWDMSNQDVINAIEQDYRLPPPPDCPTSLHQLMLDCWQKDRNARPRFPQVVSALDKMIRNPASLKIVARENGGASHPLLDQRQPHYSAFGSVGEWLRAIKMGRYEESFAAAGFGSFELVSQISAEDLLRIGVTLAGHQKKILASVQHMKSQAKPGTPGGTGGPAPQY

Structure (SMILES)	IC50
CCOC(=O)C1=C(c2ccccc2)N2CCS(=O)(=O)N=C2S1	> 79.4 µM (inactive)
CCn1c(O)c(C=Nc2ccc(N3CCOCC3)cc2)c(=O)n(CC)c1=S	> 79.4 µM (inactive)
Oc1[nH]c2ccccc2c1N=Nc1nc2ccccc2s1	> 79.4 µM (inactive)
CC1=Nc2ccccc2/C1=C\c1nc(-c2ccc(F)cc2)oc1O	> 79.4 µM (inactive)
CCCc1[nH]nc2c1C(c1ccc(OC)c(Cn3nnc4ccccc43)c1)C(C#N)=C(N)O2 (centres undefined)	> 79.4 µM (inactive)
Clc1cccc(/C=N/Nc2ncnc3ccccc23)c1	> 79.4 µM (inactive)
CC1=Nc2ccccc2/C1=C\c1nc(-c2ccc(C(F)(F)F)cc2)oc1O	> 79.4 µM (inactive)
CCOc1cccc(N2C(=O)CC(=O)NC2=O)c1	> 79.4 µM (inactive)
COC(=O)CSC1=C(C#N)C(c2ccc(C)cc2)C2=C(CCCC2=O)N1 (centres undefined)	> 79.4 µM (inactive)
